In ChEMBL document CHEMBL1201862, “PubChem BioAssay data set” (2004):
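Tested at 5 concentrations; 48 h exposure; 96-well plates; endpoints linearly interpolated, else capped at highest concentration. The concentration for 50% growth inhibition is given as GI50.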 Active and inactive are the calls of the source. Cut-off read from the data, not from the text of the source: active = GI50 up to about 1.1 µM and inactive = higher.

Legend:
Test in all cases: DTP human tumour cell line panel, 48 h
[1] = tested on: UACC-62
[2] = tested on: HT-29
[3] = tested on: KM12
[4] = tested on: HCT-116
[5] = tested on: SK-MEL-5
[6] = tested on: UACC-257
[7] = tested on: OVCAR-4
[8] = tested on: K562
[9] = tested on: COLO 205
[10] = tested on: SNB-19
[11] = tested on: Hs-578T
[12] = tested on: EKVX
[13] = tested on: MOLT-4
[14] = tested on: IGROV-1
[15] = tested on: 786-0
[16] = tested on: TK-10
[17] = tested on: MDA-MB-231
[18] = tested on: PC-3
[19] = tested on: ACHN
[20] = tested on: CCRF-CEM
[21] = tested on: SF-295
[22] = tested on: OVCAR-3
[23] = tested on: SN12C
[24] = tested on: OVCAR-8
[25] = tested on: OVCAR-5
[26] = tested on: SK-MEL-28
[27] = tested on: SK-OV-3
[28] = tested on: NCI-H226
[29] = tested on: A498
[30] = tested on: U-251
[31] = tested on: SNB-75
[32] = tested on: SK-MEL-2
[33] = tested on: SF-268
[34] = tested on: HOP-62
[35] = tested on: SR
[36] = tested on: A549
[37] = tested on: NCI/ADR-RES
[38] = tested on: MDA-N
[39] = tested on: M14
[40] = tested on: MDA-MB-435
[41] = tested on: RPMI-8226
[42] = tested on: DU-145
[43] = tested on: LOX IMVI
[44] = tested on: MCF7
[45] = tested on: SF-539
[46] = tested on: SW-620
[47] = tested on: NCI-H23
[48] = tested on: HCT-15
[49] = tested on: UO-31
[50] = tested on: Malme-3M
[51] = tested on: HL-60

With CC(=O)Oc1cc(OC(C)=O)c2c(C)cc(=O)oc2c1 the GI50 [1] was > 100 µM (inactive), the GI50 [2] was > 100 µM (inactive) and the GI50 [3] was > 100 µM (inactive). For the same compound, the GI50 [4] was > 100 µM (inactive), the GI50 [5] was > 100 µM (inactive) and the GI50 [6] was > 100 µM (inactive). For the same compound, the GI50 [7] was > 100 µM (inactive), the GI50 [8] was > 100 µM (inactive) and the GI50 [9] was > 100 µM (inactive). For the same compound, the GI50 [10] was > 100 µM (inactive), the GI50 [11] was > 100 µM (inactive) and the GI50 [12] was > 100 µM (inactive). For the same compound, the GI50 [13] was > 100 µM (inactive), the GI50 [14] was 95.7 µM (inactive) and the GI50 [15] was > 100 µM (inactive). For the same compound, the GI50 [16] was 97.7 µM (inactive), the GI50 [17] was > 100 µM (inactive) and the GI50 [18] was > 100 µM (inactive). The GI50 [19] was > 100 µM (inactive), the GI50 [20] was > 100 µM (inactive) and the GI50 [21] was > 100 µM (inactive). The GI50 [22] was > 100 µM (inactive), the GI50 [23] was > 100 µM (inactive) and the GI50 [24] was > 100 µM (inactive). The GI50 [25] was > 100 µM (inactive), the GI50 [26] was > 100 µM (inactive) and the GI50 [27] was > 100 µM (inactive). For the same compound, the GI50 [28] was > 100 µM (inactive), the GI50 [29] was 41 µM (inactive) and the GI50 [30] was > 100 µM (inactive). The GI50 [31] was 66.8 µM (inactive), the GI50 [32] was > 100 µM (inactive) and the GI50 [33] was > 100 µM (inactive). The GI50 [34] was > 100 µM (inactive), the GI50 [35] was > 100 µM (inactive) and the GI50 [36] was > 100 µM (inactive). The GI50 [37] was > 100 µM (inactive), the GI50 [38] was > 100 µM (inactive) and the GI50 [39] was 87.3 µM (inactive). The GI50 [40] was > 100 µM (inactive), the GI50 [41] was > 100 µM (inactive) and the GI50 [42] was > 100 µM (inactive). The GI50 [43] was > 100 µM (inactive), the GI50 [44] was 76.2 µM (inactive) and the GI50 [45] was 36.1 µM (inactive). The GI50 [46] was > 100 µM (inactive), the GI50 [47] was > 100 µM (inactive) and the GI50 [48] was greater than 100 µM. The GI50 [49] was 67.3 µM (inactive) and the GI50 [50] was > 100 µM (inactive).

With CC1C(=O)C(C)C(c2ccccc2)N(C)C1c1ccccc1 (stereo unspecified) the GI50 [2] was 28.6 µM (inactive), the GI50 [13] was 19.9 µM (inactive) and the GI50 [25] was 50.9 µM (inactive). For the same compound, the GI50 [35] was 20.2 µM (inactive), the GI50 [41] was 21.8 µM (inactive) and the GI50 [51] was 20.7 µM (inactive).
